Where a name gives a salt, the structure may show the parent alone. Read-outs that look alike come from different tables or passages of the source.
Assays:
[1] = test system: noradrenaline induced contraction of urethra; experiment: Effects on urethral contractions (noradrenaline-induced) in anaesthetized dogs; type: in vivo; conditions: for ED50: Canis lupus familiaris, iv; for DBP/Urethra ratio: ratio between the active doses (selectivity index), * = non-selective: substantial effect on both urethra and DBP
Source text: (§1) In order to monitor systemic blood pressure (BP), a PE catheter was introduced into the aortic arch through the right common carotid artery.
(§2) A collateral of the left femoral vein was cannulated for infusion of anaesthetic, and the right femoral vein was cannulated for administration of drugs. For intrarterial (i.a.) injection of noradrenaline (NA), a PE catheter was introduced into the lower portion of abdominal aorta via the right external iliac artery. Through such procedure, NA was selectively distributed to the lower urinary tract. Via a midline laparotomy, the urinary bladder and proximal urethra were exposed. In order to prevent the filling of the bladder, the two ureters were cannulated and the urine led outside. In order to record the prostatic urethral pressure, a Mikro-tip catheter (6 F) was introduced into the bladder via the external urethral meatus, and withdrawn until the pressure transducer was positioned in the prostatic urethra. A ligature was secured between the neck of the bladder and urethra to isolate the response of the latter and avoid any interaction with the bladder. Another ligature was put around the Mikro-tip catheter at the external urethral meatus, to secure the catheter itself. After a stabilizing period following surgical procedure (30 min), in which arterial and prostatic urethral pressure were continuously monitored as basal values, i.a. administration of NA was made at intervals of 10 min. The dose of NA chosen was such to produce an increase of at least 100% in urethral pressure. The test compounds were administered i.v. in a cumulative manner with intervals of 15-20 min between administrations. I.a. injections of NA were repeated approximately 5 min. after every dosing of test compound. Dose response curves were constructed computing the percentage inhibition to the increase in urethral pressure (NA induced), and the percentage drop in blood pressure produced by the test compound.

[2] = Acute toxicity in mice after intraperitoneal and oral administration; conditions: mouse, in vivo
Summary of the method: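 Female albino Swiss mice (20-30 g) dosed i.p. or orally at four log-scaled doses in 0.5% Methocel (10 ml/kg), 4 mice/dose. Mortality recorded at 7 days; LD₅₀ with fiducial limits by Weil's method.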

diastolic blood pressure = experiment: Effects on blood pressure in anaesthetized dogs; type: in vivo; conditions: Canis lupus familiaris, iv
Source text: as §1, §2

5HT1A receptors = molecular target: T1, 5HT1A receptors (Rattus norvegicus, UniProt P19327); experiment: [3H]8-OH-DPAT binding (5HT1A receptors), rat hippocampus membranes; conditions: for IC50: rat hippocampus crude membranes, [3H]8-OH-DPAT 1.0 nM, 25°C 30 min, read-out: Receptor Binding IC50 (nM) 5-HT1a
T1 construct: Rat hippocampi were homogenized; from tissue; host or cells: rat hippocampus membranes
T1 sequence (P19327 1-422): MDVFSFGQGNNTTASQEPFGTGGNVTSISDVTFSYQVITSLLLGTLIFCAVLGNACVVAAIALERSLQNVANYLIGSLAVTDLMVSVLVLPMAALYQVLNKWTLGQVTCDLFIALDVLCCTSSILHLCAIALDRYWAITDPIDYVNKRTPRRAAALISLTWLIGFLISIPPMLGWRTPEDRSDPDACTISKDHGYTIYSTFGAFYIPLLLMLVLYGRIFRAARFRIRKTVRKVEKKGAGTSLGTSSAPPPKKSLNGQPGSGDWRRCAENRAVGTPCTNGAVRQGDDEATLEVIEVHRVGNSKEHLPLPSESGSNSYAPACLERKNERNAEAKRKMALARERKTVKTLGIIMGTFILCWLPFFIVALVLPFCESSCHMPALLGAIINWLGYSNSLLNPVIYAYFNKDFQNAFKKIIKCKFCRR

α₁ receptors = experiment: [3H]prazosin binding (α1 receptors), rat cerebral cortex membranes; conditions: for IC50: rat cerebral cortex crude membranes, [3H]prazosin 0.35 nM, 25°C 30 min, read-out: Receptor Binding IC50 (nM) α1
Experimental: Rat cerebral cortices were homogenized in 50 volumes of original wet weight of ice-cold 50 mM Tris-HCl buffer pH 7.4. The homogenates were centrifuged at 48,000 x g for 10 minutes, and the pellets were resuspended in the same volume of ice-cold buffer, centrifuged and resuspended two more times. The final pellets obtained were resuspended in the same volume of buffer and incubated according to the conditions reported in the table below.
The incubations were terminated after the appropriate time (see table) by rapid filtration through Whatman GF/B filters using a Brandel cell harvester. The filters were washed twice with 15 ml of ice-cold buffer (see table). The radioactivity retained on the filters was determined by liquid scintillation counting. Nonspecific binding (which amounted generally to 10-30%) was evaluated by adding high concentrations of the specific displacers (see table). All the compounds were initially tested at 1x10⁻⁶ M concentration, and in the presence of significant displacing activity, a complete competition curve was generated (down to a concentration of 10⁻¹¹ M). All the samples were run in triplicate.

rat bladder strips = experiment: K+-induced contractions of rat bladder strips; type: cell-based; conditions: 80 mM KCl, drug added 30 minutes before
Experimental: The whole bladder of the rat was removed and immediately placed in Krebs solution warmed at 37°C. […] Each strip was placed in a 10 ml organ bath and connected, under a constant load of 1 g, to an isometric strain gauge (DY-1 Basile, Comerio, Varese, Italy). […] After a 60 minutes equilibration period the strips were exposed to 80 mM KCl (final concentration). […] When the tonic contraction was stable, the strips were washed and 30 minutes later a new contraction was induced. After having recorded two or more reproducible responses, one concentration of the tested drugs was added to the bath and 30 minutes later a new contraction was induced. The experimental groups consisted of at least two preparations taken from different animals for each concentration of drug tested. The IC₅₀ values of inhibition of agonist-induced contractions were evaluated by linear regression analysis.

[3] = anaesthetized male beagle dogs, i.v. cumulative, active dose in inhibiting by 50% the noradrenaline induced contraction of urethra, read-out: Urethra ED50
[4] = ip, female albino Swiss mice, intraperitoneal, mortality recorded 7 days after administration, read-out: Acute Toxicity in Mice LD50 (mg/kg) i.p.
[5] = female albino Swiss mice, oral, mortality recorded 7 days after administration, read-out: Acute Toxicity in Mice LD50 (mg/kg) p.o.
[6] = anaesthetized male beagle dogs, i.v. cumulative, active dose in lowering diastolic blood pressure by 25%, read-out: DBP ED25
[7] = phasic contraction, read-out: K+ Stimulation of Rat Bladder IC50 (μM) Contractions Phasic
[8] = tonic contraction, read-out: K+ Stimulation of Rat Bladder IC50 (μM) Contractions Tonic

COc1ccccc1N1CCN(CCCCOc2cccc3c(=O)c(C)c(-c4ccccc4)oc23)CC1.Cl.Cl
ED50 ([1]; read-out: Urethra ED50 (µg/kg)): 57 µg/kg | DBP/Urethra ratio [1]: 13.1 | LD50 at 168 h ([2]; ip, read-out: Acute Toxicity in Mice LD50 (mg/kg) i.p.): 399 mg/kg | LD50 at 168 h ([2]; po, read-out: Acute Toxicity in Mice LD50 (mg/kg) p.o.): 2240 mg/kg | ED25 (diastolic blood pressure; read-out: DBP ED25 (µg/kg)): 745 µg/kg

COc1ccccc1N1CCN(CCCOC(=O)c2cccc3c(=O)c(C)c(-c4ccccc4)oc23)CC1.Cl.Cl [Example 5, 8-{3-[4-(2-methoxyphenyl)-1-piperazinyl]-propoxycarbonyl}-3-methyl-4-oxo-2-phenyl-4H-1-benzopyran dihydrochloride]
ED50 [1, 3]: 37 µg/kg | DBP/Urethra ratio [1]: 29.0 | IC50 (5HT1A receptors): 19 nM | LD50 at 168 h [2, 4]: 621 mg/kg | LD50 at 168 h [2, 5]: > 3000 mg/kg | IC50 (α₁ receptors): 20 nM | ED25 (diastolic blood pressure; [6]): 1070 µg/kg

COc1ccccc1N1CCN(CCN(C)C(=O)c2cccc3c(=O)c(C)c(-c4ccccc4)oc23)CC1.Cl [Example 16, 8-{N-methyl-2-[4-(2-methoxyphenyl)-1-piperazinyl]-ethylcarbamoyl}-3-methyl-4-oxo-2-phenyl-4H-1-benzopyran monohydrochloride]
IC50 (rat bladder strips; [7]): 1.6 µM | IC50 (rat bladder strips; [8]): 2.2 µM | IC50 (5HT1A receptors): 1050 nM | LD50 at 168 h [2, 4]: 345 mg/kg | LD50 at 168 h [2, 5]: 778 mg/kg | IC50 (α₁ receptors): 220 nM

COc1ccccc1N1CCN(CCC(O)c2cccc3c(=O)c(C)c(-c4ccccc4)oc23)CC1.Cl (stereo not shown) [Example 20, 8-{1-Hydroxy-3-[4-(2-methoxyphenyl)-1-piperazinyl]-propyl}-3-methyl-4-oxo-2-phenyl-4H-1-benzopyran hydrochloride]
IC50 (rat bladder strips; [7]): 2.7 µM | IC50 (rat bladder strips; [8]): 2.5 µM | IC50 (5HT1A receptors): 85 nM | LD50 at 168 h [2, 4]: 297 mg/kg | LD50 at 168 h [2, 5]: 594 mg/kg | IC50 (α₁ receptors): 169 nM

COc1ccccc1N1CCN(CCCC(O)c2cccc3c(=O)c(C)c(-c4ccccc4)oc23)CC1.Cl.O (stereo not shown) [Example 21, 8-{1-hydroxy-4-[4-(2-methoxyphenyl)-1-piperazinyl]-butyl}-3-methyl-4-oxo-2-phenyl-4H-1-benzopyran hydrochloride monohydrate]
ED50 ([1]; read-out: Urethra ED50 (µg/kg)): 6.6 µg/kg | DBP/Urethra ratio [1]: 19.2 | IC50 (5HT1A receptors): 33 nM | LD50 at 168 h [2, 4]: 297 mg/kg | LD50 at 168 h [2, 5]: 566 mg/kg | IC50 (α₁ receptors): 17 nM | ED25 (diastolic blood pressure; read-out: DBP ED25 (µg/kg)): 127 µg/kg

COc1ccccc1N1CCN(CCSCc2cccc3c(=O)c(C)c(-c4ccccc4)oc23)CC1.Cl [Example 29, 8-{2-[4-(2-methoxyphenyl)-1-piperazinyl]-ethylthiomethyl}-3-methyl-4-oxo-2-phenyl-4H-1-benzopyran hydrochloride]
IC50 (rat bladder strips; [7]): 10 µM | IC50 (rat bladder strips; [8]): 10 µM | IC50 (5HT1A receptors): 45 nM | LD50 at 168 h [2, 4]: 730 mg/kg | LD50 at 168 h [2, 5]: > 3000 mg/kg | IC50 (α₁ receptors): 86 nM

COc1ccccc1N1CCN(CCNc2cccc3c(=O)c(C)c(-c4ccccc4)oc23)CC1.Cl.Cl [Example 32, 8-{2-[4-(2-methoxyphenyl)-1-piperazinyl]-ethylamino}-3-methyl-4-oxo-2-phenyl-4H-1-benzopyran dihydrochloride]
IC50 (rat bladder strips; [7]): 10 µM | IC50 (rat bladder strips; [8]): > 10 µM | IC50 (5HT1A receptors): 46 nM | LD50 at 168 h [2, 4]: 301 mg/kg | LD50 at 168 h [2, 5]: > 2000 mg/kg | IC50 (α₁ receptors): 119 nM

COc1ccccc1N1CCN(CCCNc2cccc3c(=O)c(C)c(-c4ccccc4)oc23)CC1 [Example 33, 8-{3-[4-(2-methoxyphenyl)-1-piperazinyl]-propylamino}-3-methyl-4-oxo-2-phenyl-4H-1-benzopyran hydrochloride 2.75-hydrate]
IC50 (rat bladder strips; [7]): 10 µM | IC50 (rat bladder strips; [8]): 10 µM | IC50 (5HT1A receptors): 38 nM | LD50 at 168 h [2, 4]: 399 mg/kg | LD50 at 168 h [2, 5]: > 2000 mg/kg | IC50 (α₁ receptors): 17 nM

COc1ccccc1N1CCN(CCCCNc2cccc3c(=O)c(C)c(-c4ccccc4)oc23)CC1 [Example 34, 8-{4-[4-(2-methoxyphenyl)-1-piperazinyl]-butylamino}-3-methyl-4-oxo-2-phenyl-4H-1-benzopyran hydrochloride hemihydrate]
IC50 (rat bladder strips; [7]): 2.8 µM | IC50 (rat bladder strips; [8]): 3.6 µM | IC50 (5HT1A receptors): 34 nM | LD50 at 168 h [2, 4]: > 500 mg/kg | IC50 (α₁ receptors): 30 nM

COc1cccc(OC)c1OCCNCCOc1cccc2c(=O)c(C)c(-c3ccccc3)oc12.Cl [Example 44, 8-{2-[2-(2,6-dimethoxyphenoxy)-ethylamino]-ethoxy}-3-methyl-4-oxo-2-phenyl-4H-1-benzopyran hydrochloride]
IC50 (rat bladder strips; [7]): 0.6 µM | IC50 (rat bladder strips; [8]): 0.5 µM | IC50 (5HT1A receptors): 201 nM | LD50 at 168 h [2, 4]: 84 mg/kg | LD50 at 168 h [2, 5]: 399 mg/kg | IC50 (α₁ receptors): 685 nM

COc1ccccc1N1CCN(CC(O)COc2cccc3c(=O)c(C)c(-c4ccccc4)oc23)CC1.Cl (stereo not shown) [Example 45, 8-{2-hydroxy-3-[4-(2-methoxyphenyl)-1-piperazinyl]-propoxy}-3-methyl-4-oxo-2-phenyl-4H-1-benzopyran hydrochloride]
ED50 [1, 3]: 16.4 µg/kg | DBP/Urethra ratio [1]: 11.3 | IC50 (5HT1A receptors): 106 nM | LD50 at 168 h [2, 4]: 329 mg/kg | LD50 at 168 h [2, 5]: 1730 mg/kg | IC50 (α₁ receptors): 15 nM | ED25 (diastolic blood pressure; [6]): 186 µg/kg

Cc1c(-c2ccccc2)oc2c(C(=O)OCCN3CCCCC3)cccc2c1=O [Flavoxate, 8-(2-piperidinoethoxycarbonyl)-3-methyl-4-oxo-2-phenyl-4H-1-benzopyran, reference compound]
IC50 (rat bladder strips; [7]): 13 µM | IC50 (rat bladder strips; [8]): 13 µM | IC50 (5HT1A receptors): > 1000 nM | affinity for the 5HT1A-serotoninergic receptors (5HT1A receptors; statement in words): practically devoid of affinity | LD50 at 168 h [2, 4]: 385 mg/kg | LD50 at 168 h [2, 5]: 808 mg/kg | IC50 (α₁ receptors): > 1000 nM | affinity for the α₁-adrenergic receptors (α₁ receptors; statement in words): practically devoid of affinity

COc1cc2nc(N3CCN(C(=O)c4ccco4)CC3)nc(N)c2cc1OC [Prazosin, 1-(4-amino-6,7-dimethoxy-2-quinazonlinyl)-4-(2-furoyl)-piperazine, reference compound]
ED50 [1, 3]: 3.6 µg/kg | DBP/Urethra ratio [1]: 1.8* | selectivity for the mammalian lower urinary tract (antagonizing urethral contractions versus lowering blood pressure) ([1]; statement in words): do not exhibit such selectivity | ED25 (diastolic blood pressure; read-out: DBP ED25 (µg/kg)): 6.6 µg/kg

Cc1c(-c2ccccc2)oc2c(C(=O)OC(C)(C)CN3CCCCC3)cccc2c1=O.Cl [Terflavoxate, 8-(1,1-dimethyl-2-piperidino-ethoxycarbonyl)-3-methyl-4-oxo-2-phenyl-4H-1-benzopyran hydrochloride, reference compound]
ED50 [1, 3]: > 10000 µg/kg | effect on urethral contractions ([1]; statement in words): no effect on urethral contractions | ED25 (diastolic blood pressure; [6]): 6060 µg/kg
